From ChEMBL document CHEMBL5236600, “Identification of a Novel Potent CYP4Z1 Inhibitor Attenuating the Stemness of Breast Cancer Cells through Lead Optimization” (J Med Chem, 2022)

Legend:
Cytochrome P450 4Z1 [1] = target: T1, Cytochrome P450 4Z1 (Homo sapiens, UniProt Q86W10); assay: Inhibition of CYP4Z1 in human HEK293T cells using Luciferin-BE as substrate at 10 uM incubated for 30 mins in presence of NADPH by luminescence based assay relative to control; type: ADME, cell-based; conditions: HEK-293T, 0.5 h
T1 sequence (Q86W10 whole entry): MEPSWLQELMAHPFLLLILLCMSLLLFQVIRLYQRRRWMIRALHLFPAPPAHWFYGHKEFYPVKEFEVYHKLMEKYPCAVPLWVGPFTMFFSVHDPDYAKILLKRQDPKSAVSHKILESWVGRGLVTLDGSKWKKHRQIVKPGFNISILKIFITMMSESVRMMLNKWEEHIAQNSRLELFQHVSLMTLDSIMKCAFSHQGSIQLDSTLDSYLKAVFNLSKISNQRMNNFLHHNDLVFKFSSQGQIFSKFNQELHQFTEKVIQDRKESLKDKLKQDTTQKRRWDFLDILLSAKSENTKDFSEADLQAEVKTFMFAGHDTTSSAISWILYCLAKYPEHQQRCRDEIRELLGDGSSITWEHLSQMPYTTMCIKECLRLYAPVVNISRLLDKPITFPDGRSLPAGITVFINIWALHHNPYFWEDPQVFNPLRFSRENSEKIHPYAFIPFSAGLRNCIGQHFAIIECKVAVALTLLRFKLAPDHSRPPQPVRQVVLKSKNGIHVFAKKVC

Cytochrome P450 4Z1 [2] = target: T1, Cytochrome P450 4Z1; assay: Inhibition of CYP4Z1 in human HEK293T cells using Luciferin-BE as substrate at 1 uM incubated for 30 mins in presence of NADPH by luminescence based assay relative to control; type: ADME, cell-based; conditions: HEK-293T, 0.5 h

CCCCc1ccc(N/C=N/O)cc1
inhibition at 10 µM (Cytochrome P450 4Z1 [1]): 84.3% | inhibition at 1 µM (Cytochrome P450 4Z1 [2]): 54.2%
